Values after ≈ are worked out from the molar mass of the structure shown. Like-named read-outs stand apart in the source and are kept apart here.
Columns and labels:
[1] = Solubility pH 7.4; assay type: physicochemical; conditions: aqueous buffer
[2] = system: Asexual parasites of P. falciparum strain 3D7; assay: In vitro drug activity on asexual parasites (SYBR Green assay); assay type: cell-based; conditions: Plasmodium falciparum, P. falciparum 3D7 asexual stage, 72 h, read-out: Asexual EC50
Outline: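 3D7 asexual cultures at 0.5% parasitemia and 2% hematocrit were exposed to drug (DMSO <0.5%) for 72 h under standard culture conditions, in duplicate with no-drug and RBC-only controls. After freeze-thaw lysis, SYBR Green I lysis buffer was added for 30 min at room temperature; fluorescence was read at 490 nm excitation/520 nm emission.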

[3] = PAMPA permeability; assay type: in vitro ADME
[4] = Microsomal stability (rat); assay type: in vitro ADME; conditions: rat microsomes
[5] = Table 3, read-out: Microsomal Stability (rat) T1/2
[6] = Table 1, read-out: Microsomal Stability (rat) T1/2

Structure (SMILES)	solubility ([1]; Table 3) [µg/mL]	EC50 ([2]; Table 3) [nM]	Papp ([3]; Table 3) [×10⁻⁶ cm/s]	half-life [4, 5] [min]	solubility ([1]; Table 1) [µg/mL]	EC50 ([2]; Table 1) [nM]	Papp ([3]; Table 1) [×10⁻⁶ cm/s]	half-life [4, 6] [min]
Cn1c(=N)n(-c2cncnc2)c2c3cc(-c4ccc(Cl)cc4)ccc3ncc21	16.3 (≈ 42.1 µM)	220	397	> 30	–	–	–	–
Cc1ncncc1-n1c(=N)n(C)c2cnc3ccc(-c4ccc(Cl)cc4)cc3c21	24.7 (≈ 61.6 µM)	721	1290	> 30	–	–	–	–
Cc1ncncc1-n1c(=N)n(C)c2cnc3ccc(-c4ccc(F)cc4)cc3c21	6.2 (≈ 16.1 µM)	538	1180	> 30	–	–	–	–
Cc1ccc(-c2ccc3ncc4c(c3c2)n(-c2cncnc2C)c(=N)n4C)cc1	> 38	1150	1240	> 30	–	–	–	–
Cc1ncncc1-n1c(=N)n(C)c2cnc3ccc(-c4cccc(F)c4)cc3c21	> 38	1240	1100	> 30	–	–	–	–
CC(=O)N1CCN(c2ncc(-n3c(=N)n(C)c4cnc5ccc(-c6ccc(Cl)cc6)cc5c43)cn2)CC1	22.9 (≈ 44.6 µM)	391	292	> 30	–	–	–	–
COc1ccc(-c2ccc3ncc4c(c3c2)n(-c2cncnc2)c(=N)n4C)cc1OC	> 61	17	510	> 30	–	–	–	–
Cn1c(=N)n(-c2cncnc2)c2c3cc(-c4ccc(C(F)(F)F)nc4)ccc3ncc21	31 (≈ 73.6 µM)	560	541	> 30	–	–	–	–
Cc1ccc(-c2ccc3ncc4c(c3c2)n(-c2cncnc2)c(=N)n4C)cn1	> 54	190	136	> 30	–	–	–	–
COc1ccc(-c2ccc3ncc4c(c3c2)n(-c2cncnc2)c(=N)n4C)cn1	34.5 (≈ 90 µM)	1050	684	> 30	–	–	–	–
Cc1ccc(C#N)cc1-n1/c(=N/C#N)n(C)c2cnc3ccc(-c4ccc(N)nc4)cc3c21 [Compound 4, (E)-N-(8-(6-aminopyridin-3-yl)-1-(5-cyano-2-methylphenyl)-3-methyl-1,3-dihydro-2H-imidazo[4,5-c]quinolin-2-ylidene)cyanamide]	–	–	–	–	3.7 (≈ 8.6 µM)	11.9	34.1	> 30
Cc1ccc(C#N)cc1-n1c(=N)n(C)c2cnc3ccc(-c4ccnn4C)cc3c21 [Compound 5, 3-(2-imino-3-methyl-8-(1-methyl-1H-pyrazol-5-yl)-2,3-dihydro-1H-imidazo[4,5-c]quinolin-1-yl)-4-methylbenzonitrile]	–	–	–	–	42.5 (≈ 108 µM)	154	219	> 30
